From US20230227477A1, “COMPOUNDS FOR SENSING REACTIVE OXYGEN SPECIES AND METHODS FOR USING THE SAME” (WAKE FOREST UNIVERSITY HEALTH SCIENCES, priority 2020, published 2023) come the findings set out here.

Series [1] relates to HeLa cells. Put plainly: Cytotoxicity in HeLa cells (phosphatase assay). Particulars: various concentrations, 5 h incubation. It is filed as cell-based, human. The method, then:
First, compound RAH393 and lactone compound 3 were tested for cytotoxicity in HeLa cells. A population of cells (>6×10^6 cells/mL as determined with a hemocytometer) was diluted with FBS-free DMEM:F12-K, 1:1, 1% penicillin-streptomycin, and 1% L-glutamine to give a final concentration of 50,000 cells/mL. To a 96-well plate was added 100 μL of cell media solution resulting in a total of 5 k cells per well. Plates were then incubated at 37° C. in an atmosphere of 5% CO2 and 95% humidified air for 24 h. Fresh culture media (100 μL) was then added to each well of cells resulting in 200 μL of media per well followed by the addition of compound RAH393 or compound 3 at various concentrations (20 mM stock in biological-grade DMSO, resulting in no more than 1% DMSO per well). After incubating for 5 h, a phosphatase assay was used to establish cell viability as follows: Media was removed from each well and replaced with 100 μL of phosphatase solution (100 mg of phosphatase substrate, in 30 mL of 0.1 M NaOAc, pH 5.5, 0.1% Triton X-100 buffer). Following an incubation period of 30 min, 50 μL of 0.10 M NaOH was added to each well and viability was assessed spectrophotometrically at 405 nm using a 96-well plate reader (BioTek SYNERGY-HTX multi-mode reader, Winooski, Vt.). Assays were performed in triplicate and presented as the mean+/−STDEV.

Series [2] is described as follows: DNFB trapping of released persulfide, LCMS (validation as ROS-activated persulfide donor). It is filed as physicochemical. To be noted: 200 μM compound, 1 mM DNFB. How it is done: Initially, 5 mM stock solutions of compound RAH393, compound 5, and 2,4-dinitrofluorobenzene (DNFB) were prepared in 200-proof ethanol. In addition, a 100 mM stock solution of hydrogen peroxide in ammonium bicarbonate buffer (1 mM, pH 7.0) was prepared immediately prior to use. To a conical vial containing 1500 μL of 1M ammonium bicarbonate was then added 80 μL of the 5 mM stock of compound RAH393 (or control compound 5), 400 μL of the 5 mM DNFB stock, and 20 μL of 100 mM hydrogen peroxide giving a final concentrations of 200 μM compound RAH393 (or compound 5), 1 mM DNFB, and 1 mM H2O2. At the designated timepoints, a 100 μL aliquot of the room-temperature reaction was diluted with 900 μL of HPLC-grade methanol with 0.1% formic acid for analysis. 75 μL of the resultant solution was then injected onto C18 reverse phase column (Agilent Technologies, SB-C18 Analytical HPLC Col. 4.6×150) and eluted with HPLC-grade methanol (0.1% formic acid) and HPLC-grade water (0.1% formic acid) at a flow rate of 200 μL/min using the following gradient: 0-2 min, 90:10 water:methanol; 2-8 min, 40:60 water:methanol; 8-30 min, 10:90 water:methanol; 30-40 min, 5:95 water:methanol. Retention times of lactone compound 3 (25.0 min), compound RAH393 (35.6 min), compound 5 (27.7 min), and DNFB (16.5 min) were independently validated. When this assay was run using compound RAH393, in addition to compound 7 (21.7 min), the tri- and tetrasulfides of N-acetylcysteamine were also present (14.1 min and 16.2 min, respectively), further confirming persulfide release from compound RAH393.

Series [3] relates to HeLa cells. Put plainly: Protective effects on HeLa cells under H2O2-induced oxidative stress (CCK-8 viability). It is filed as cell-based, human. Particulars: pre-treatment 200 μM compound 1 h, then 200 μM H2O2 1 h, vs H2O2 alone. The method, then:
Next, the protective effects of compound RAH393 on cultured HeLa cells which were under oxidative stress were examined. A population of cells (>6×10^6 cells/mL as determined with a hemocytometer) was diluted with FBS-free DMEM:F12-K, 1:1, 1% penicillin-streptomycin, and 1% L-glutamine to give a final concentration of 50,000 cells/mL. To a 96-well plate was added 100 μL of cell media solution resulting in a total of 5 k cells per well. Plates were then incubated at 37° C. in an atmosphere of 5% CO2 and 95% humidified air for 24 h. Confluent cells were then pre-incubated in FBS-free media with compound RAH393 (or compound 5) (200 μM) for 1 h followed by treatment with H2O2 (200 μM) for an additional 1 h incubation period. Control wells with H2O2 alone (200 μM) were also evaluated on the same plate. After a total incubation period of 2 h, cell contents were then replaced with 100 μL of fresh FBS-free media with 10% CCK-8. Cells were then incubated for 3 h at 37° C. and cell viability was assessed by measuring the resulting absorbance at 450 nm using a 96-well plate reader (BioTek SYNERGY-HTX multi-mode reader, Winooski, Vt.).

Regarding `CC(=O)NCCSSC(=O)C(C)(C)Cc1ccccc1B1OC(C)(C)C(C)(C)O1` [compound RAH393], in the series with HeLa cells [1], the “cytotoxicity toward HeLa cells (in words)” value is “neither compound RAH393 nor lactone compound 3 were toxic”. For the same compound, the “formation of trapped disulfide compound 7 (persulfide release), LCMS” value in series [2] (1 mM H2O2, ammonium bicarbonate buffer, room temperature) is “formation of disulfide compound 7 was confirmed”. Moreover, the “production of lactone compound 3, LCMS (in words)” value in series [2] (1 mM H2O2, over a period of 25 min) is on record as “linear increase in the production of lactone compound 3”. In addition, the “increase in cell viability” value with HeLa cells [3] worked out at 100%.
